From PubChem BioAssay AID248 (DTP/NCI, 2004)
Toxic doses and inconclusive results are not listed. Rule as the data show it: active = T/C of 150% or more; inactive = T/C below 125%.

System: L1210 leukemia ip in BDF1 mice, survival T/C
Assay: NCI In Vivo Anticancer Drug Screen. Data for tumor model L1210 Leukemia (intraperitoneal) in B6D2F1 (BDF1) mice
Settings: endpoint: mean survival time, higher = longer survival
Method in brief: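 Read-out is survival time, reported as the treated-group measurement over the vehicle-control measurement.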

Measured: T/C

Cn1cnc(C(N)=S)c1N
inactive: dose: 100.0 mg/kg/injection, schedule: Q01DX009 (ip), vehicle: saline 98 % of control | dose: 100.0 mg/kg/injection, schedule: Q04DX003 (ip), vehicle: saline 107 % of control | dose: 200.0 mg/kg/injection, schedule: Q01DX009 (ip), vehicle: saline 105 % of control | dose: 200.0 mg/kg/injection, schedule: Q04DX003 (ip), vehicle: saline 102 % of control | dose: 400.0 mg/kg/injection, schedule: Q01DX009 (ip), vehicle: saline 96 % of control | dose: 400.0 mg/kg/injection, schedule: Q04DX003 (ip), vehicle: saline 105 % of control

O=Cc1ccc(C(=O)O)cc1O
inactive: dose: 100.0 mg/kg/injection, schedule: Q04DX003 (ip), vehicle: saline with Tween-80 98 % of control | dose: 200.0 mg/kg/injection, schedule: Q04DX003 (ip), vehicle: saline with Tween-80 102 % of control
